Test results from ChEMBL document CHEMBL4665895, “Covalent Bridging of Corilagin Improves Antiferroptosis Activity: Comparison with 1,3,6-Tri-O-galloyl-β-d-glucopyranose” (ACS Med Chem Lett, 2020).
Active and inactive are the calls of the source. The rule behind the calls is not given here.

Experiments:
[1] = Metal chelating activity assessed as Fe2+-compound complex formation incubated for 5 mins by colorimetry
[2] = Antioxidant activity assessed as DPPH free radical scavenging activity after 5 mins by microplate reader based assay; assay type: functional
[3] = Anti-ferroptosis activity against erastin-induced ferroptosis in Spargue-Dawley rat bmMSCs cells assessed as cell viability at 4.7 uM after 1 hr by AnnexinV-FITC/propidium iodide staining based flow cytometry analysis (reference value: 65.9%); assay type: functional; conditions: Bone marrow cell, read-out: Activity
[4] = Antioxidant activity in pH 4.5 phosphate buffer assessed as PTIO radical scavenging activity after 1 hr by microplate reader based assay; assay type: functional
[5] = Anti-ferroptosis activity against erastin-induced ferroptosis in Sprague-Dawley rat bmMSC cells assessed as late cell death at 4.7 uM after 1 hr by AnnexinV-FITC/propidium iodide staining-based flow cytometric analysis (reference value: 19.9%); assay type: functional, Bone marrow cell
[6] = Antioxidant activity assessed as compound-DPPH adduct formation with covalent bridging by UHPLC-ESI-Q-TOF-MS analysis; assay type: functional
[7] = Antioxidant activity in pH 7.4 phosphate buffer assessed as PTIO radical scavenging activity after 1 hr by microplate reader based assay; assay type: functional
[8] = Anti-ferroptosis activity against erastin-induced ferroptosis in Sprague-Dawley rat bmMSC cells assessed as early cell death at 4.7 uM after 1 hr by AnnexinV-FITC/propidium iodide staining-based flow cytometric analysis (reference value: 10.4%); assay type: functional, Bone marrow cell
[9] = Antioxidant activity assessed as ferric ion reducing activity using FeCl3.H2O and TPTZ incubated for 30 mins by FRAP assay; assay type: functional
[10] = tested on: Bone marrow cell; assay: Anti-ferroptosis activity against erastin-induced ferroptosis in Sprague-Dawley rat bmMSC cells assessed as inhibition of lipid peroxidation at 3 ug/ml preincubated for 12 hrs followed by compound addition and measured after 12 hrs by C11-Bodipy fluorescent dye based microscopic analysis; assay type: functional; conditions: dose 3.0 µg/ml
[11] = Potency index, ratio of trolox IC50 to test compound IC50 for antioxidant activity assessed as DPPH radical scavenging activity; assay type: functional
[12] = tested on: Bone marrow cell; assay: Anti-ferroptosis activity against erastin-induced ferroptosis in Sprague-Dawley rat bmMSC cells assessed as increase in cell viability at 0.47 to 4.7 uM preincubated for 12 hrs followed by compound addition and measured after 12 hrs by CCK8 assay; assay type: functional, cell-based; conditions: dose microM 0.47-4.7, time 12.0 hrs
[13] = Anti-ferroptosis activity against erastin-induced ferroptosis in Sprague-Dawley rat bmMSC cells assessed as cellular death at 4.7 uM after 1 hr by AnnexinV-FITC/propidium iodide staining-based flow cytometric analysis (reference value: 3.73%); assay type: functional, Bone marrow cell
[14] = Metal chelating activity assessed as Fe2+-compound complex formation by measuring red shift by UV-visible spectrophotometry

Structure (SMILES)	IC50 [1]	IC50 [2]	inhibition [2]	viability at 4.7 µM [3]	IC50 [4]	inhibition [4]	Activity [5]	Activity [6]	IC50 [7]	inhibition [7]	Activity [8]	IC50 [9]	inhibition [9]	inhibition [1]	Activity [10]	Ratio IC50 [11]	Activity [12]	Activity [13]	Activity [14]
O=C([O-])CC(O)(CC(=O)[O-])C(=O)[O-].[Na+].[Na+].[Na+] [SODIUM CITRATE]	14 µM	–	–	–	–	–	–	–	–	–	–	–	–	–	–	–	–	–	–
O=C(O[C@@H]1O[C@@H]2COC(=O)c3cc(O)c(O)c(O)c3-c3c(cc(O)c(O)c3O)C(=O)O[C@H]([C@H]1O)[C@@H]2O)c1cc(O)c(O)c(O)c1 [CORILAGIN]	7 µM	1 µM	Dose-dependent effect	80.2%	204 µM	Dose-dependent effect	7.8%	Active	94 µM	Dose-dependent effect	9.2%	12 µM	Dose-dependent effect	Dose-dependent effect	Active	8	Active	2.7%	Active
Cc1c(C)c2c(c(C)c1O)CCC(C)(C(=O)O)O2 (racemic) [TROLOX]	–	7 µM	–	–	289 µM	–	–	–	445 µM	–	–	81 µM	–	–	–	–	–	–	–
O=C(OC[C@H]1O[C@@H](OC(=O)c2cc(O)c(O)c(O)c2)[C@H](O)[C@@H](OC(=O)c2cc(O)c(O)c(O)c2)[C@@H]1O)c1cc(O)c(O)c(O)c1	11 µM	1 µM	Dose-dependent effect	78.4%	290 µM	Dose-dependent effect	9%	Active	115 µM	Dose-dependent effect	10.3%	35 µM	Dose-dependent effect	Dose-dependent effect	Active	6.5	Active	2.2%	Active
